Data taken from patent publication US7595397B2, “Compounds which modulate the CB2 receptor” (Boehringer Ingelheim International GmbH, priority 2005, dated 2009).

biological target: T1, human CB2R (Homo sapiens, UniProt P34972); assay: CB2R mediated modulation of cAMP synthesis; format: cell-based; details: CHO cells expressing human CB2R; decrease of forskolin induced cAMP; found 'through the use of the above described assays'
T1 construct: host or cells: CHO cells
Description: B. CB2R Mediated Modulation of cAMP Synthesis:
CHO cells expressing human CB2R (Euroscreen) were plated at a density of 5000 cells per well in 384 well plates and incubated overnight at 37° C. After removing the media, the cells were treated with test compounds diluted in stimulation buffer containing 1 mM IBMX, 0.25% BSA and 10 uM Forskolin. The assay was incubated for 30 minutes at 37° C. Cells were lysed and the cAMP concentration was measured using DiscoverX-XS cAMP kit, following the manufacturer's protocol. In this setting, agonists will decrease forskolin induced production of cAMP while inverse agonists will further increase forskolin induced production of cAMP. EC50 of agonists were calculated as follows. The maximal amount of cAMP produced by forskolin compared to the level of cAMP inhibited by 1 uM CP55940 is defined as 100%. The EC50 value of each test compound was determined as the concentration at which 50% of the forskolin-stimulated cAMP synthesis was inhibited. Data was analyzed using a four-parameter logistic model. (Model 205 of XLfit 4.0).

T1 sequence (P34972 whole entry): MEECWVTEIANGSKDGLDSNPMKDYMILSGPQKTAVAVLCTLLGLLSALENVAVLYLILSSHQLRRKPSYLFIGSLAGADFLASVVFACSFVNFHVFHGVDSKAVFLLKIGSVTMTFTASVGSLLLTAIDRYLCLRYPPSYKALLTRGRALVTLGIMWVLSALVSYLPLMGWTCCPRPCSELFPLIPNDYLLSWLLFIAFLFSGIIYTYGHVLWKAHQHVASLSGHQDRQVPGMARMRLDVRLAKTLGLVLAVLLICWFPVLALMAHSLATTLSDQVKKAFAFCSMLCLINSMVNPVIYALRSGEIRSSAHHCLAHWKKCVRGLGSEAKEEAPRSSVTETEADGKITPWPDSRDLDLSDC

Agonistic activity, agonistic activity:
Clc1ccccc1-c1ccc(CN2CCCC(c3ccccc3)C2)cc1 (centres unmarked) [1-(2′-Chloro-biphenyl-4-ylmethyl)-3-phenyl-piperidine]
O=S(=O)(c1ccccc1)N1CCN(Cc2ccc(-c3ccccc3C(F)(F)F)cc2)CC1c1ccccc1 (centres unmarked) [1-Benzenesulfonyl-2-phenyl-4-(2′-trifluoromethyl-biphenyl-4-ylmethyl)-piperazine]
FC(F)(F)c1ccccc1-c1ccc(CN2CCOC(c3ccccc3)C2)cc1 (centres unmarked) [2-Phenyl-4-(2′-trifluoromethyl-biphenyl-4-ylmethyl)-morpholine]
c1ccc(C2CN(Cc3ccc(-c4ccccn4)cc3)CCO2)cc1 (centres unmarked) [2-Phenyl-4-(4-pyridin-2-yl-benzyl)-morpholine]
c1ccc(C2CN(Cc3ccc(-c4ccsc4)cc3)CCO2)cc1 (centres unmarked) [2-Phenyl-4-(4-thiophen-3-yl-benzyl)-morpholine]
FC(F)(F)c1ccccc1-c1ccc(CN2CCNC(Cc3ccccc3)C2)cc1 (centres unmarked) [3-Benzyl-1-(2′-trifluoromethyl-biphenyl-4-ylmethyl)-piperazine]
FC(F)(F)c1ccccc1-c1ccc(CN2CCCC(c3ccccc3)C2)cc1 (centres unmarked) [3-Phenyl-1-(2′-trifluoromethyl-biphenyl-4-ylmethyl)-piperidine]
Clc1cccc(-c2ccc(CN3CCOC(c4ccccc4)C3)cc2)c1Cl (centres unmarked) [4-(2′,3′-Dichloro-biphenyl-4-ylmethyl)-2-phenyl-morpholine]
Cc1ccc(Cl)c(-c2ccc(CN3CCOC(c4ccccc4)C3)cc2)c1 (centres unmarked) [4-(2′-Chloro-5′-methyl-biphenyl-4-ylmethyl)-2-phenyl-morpholine]
Clc1ccccc1-c1ccc(CN2CCOC(c3ccccc3)C2)cc1 (centres unmarked) [4-(2′-Chloro-biphenyl-4-ylmethyl)-2-phenyl-morpholine]
CCOc1ccccc1-c1ccc(CN2CCOC(c3ccccc3)C2)cc1 (centres unmarked) [4-(2′-Ethoxy-biphenyl-4-ylmethyl)-2-phenyl-morpholine]
FC(F)(F)c1ccccc1-c1ccc(CN2CCOCC2)cc1 [4-(2′-Trifluoromethyl-biphenyl-4-ylmethyl)-morpholine]
Clc1sccc1-c1ccc(CN2CCOC(c3ccccc3)C2)cc1 (centres unmarked) [4-[4-(2-Chloro-thiophen-3-yl)-benzyl]-2-phenyl-morpholine]
N#Cc1ccccc1-c1ccc(CN2CCOC(c3ccccc3)C2)cc1 (centres unmarked) [4′-(2-Phenyl-morpholin-4-ylmethyl)-biphenyl-2-carbonitrile]
FC(F)(F)c1ccccc1-c1ccc(CN2CCO[C@@H](c3ccccc3)C2)cn1 [(S)-2-Phenyl-4-[6-(2-trifluoromethyl-phenyl)-pyridin-3-ylmethyl]-morpholine]
Clc1cccc(-c2ccc(CN3CCO[C@@H](c4ccccc4)C3)cc2)c1Cl [Example 183, (S)-4-(2′,3′-Dichloro-biphenyl-4-ylmethyl)-2-phenyl-morpholine]
c1ccc(C[C@H]2CN(Cc3ccc(-c4ccccc4)nc3)CCN2)cc1 [Example 186, (S)-3-Benzyl-1-(6-phenyl-pyridin-3-ylmethyl)-piperazine]
c1ccc(-c2ccc(CN3CCO[C@@H](c4ccccc4)C3)cn2)cc1 [Example 188, (S)-2-Phenyl-4-(6-phenyl-pyridin-3-ylmethyl)-morpholine]
Clc1cccc(-c2ccc(CN3CCO[C@@H](c4ccccc4)C3)cn2)c1 [Example 189, (S)-4-[6-(3-Chloro-phenyl)-pyridin-3-ylmethyl]-2-phenyl-morpholine]
Clc1sccc1-c1ccc(CN2CCO[C@@H](c3ccccc3)C2)cc1 [Example 191, (S)-4-[4-(2-Chloro-thiophen-3-yl)-benzyl]-2-phenyl-morpholine]
N#Cc1ccccc1-c1ccc(CN2CCO[C@@H](c3ccccc3)C2)cc1 [Example 192, 4′-((S)-2-Phenyl-morpholin-4-ylmethyl)-biphenyl-2-carbonitrile]
Clc1ccccc1-c1ccc(CN2CCO[C@@H](c3ccccc3)C2)cc1 [Example 193, (S)-4-(2′-Chloro-biphenyl-4-ylmethyl)-2-phenyl-morpholine]
O=C(c1ccccc1)N1CCN(Cc2ccc(-c3ccccc3C(F)(F)F)cc2)CC1Cc1ccccc1 (centres unmarked) [Phenyl-[2-benzyl-4-(2′-trifluoromethyl-biphenyl-4-ylmethyl)-piperazin-1-yl]-methanone]
